Data published in patent US12161663B2, “Compositions and methods for targeting cells” (Children's Medical Center Corporation, priority 2018, dated 2024).

Key:
BV2 microglia cell line = experiment: WST-1 assay of PMA-induced ROS production; format: cell-based
Source text: The WST-1 assay allows to measure the ROS produced by cell cultures.

human recombinant TSPO = target: T1, human recombinant TSPO (Homo sapiens, UniProt P30536); experiment: Microscale thermophoresis (MST) binding to isolated TSPO; conditions: 5 nM red-tagged hTSPO
T1 construct: purchased LSBio
Protocol: The tests were performed by using isolated human recombinant TSPO (purchased from LSBio). The lyophilized protein was resuspended in Tris buffer and stored at −80° C. as per manufacturer instructions. Labelling with a deep-red fluorophore was performed by using the Monolith labeling kit-RED from Nanothemper. Briefly, 200 nM of hTSPO was resuspended in Tris/Sarkosyl 0.1% buffer and then mixed with a solution containing anti-His red-fluorophore at 100 nM concentration. After incubation for 30 minutes at RT, the mixture was centrifuged at 15000 g for 10 minutes at 4° C., to pellet any aggregate or precipitate. […] MST was then performed to assess binding.

[1] = cited from earlier work

T1 sequence (P30536 whole entry): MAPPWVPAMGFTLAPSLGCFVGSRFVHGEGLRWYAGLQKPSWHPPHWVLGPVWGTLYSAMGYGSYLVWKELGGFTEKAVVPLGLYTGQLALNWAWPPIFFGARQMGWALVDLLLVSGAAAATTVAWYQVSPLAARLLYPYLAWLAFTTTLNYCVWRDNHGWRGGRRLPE

c1ccc2c(c1)[I+]c1ccccc1-2 [DPI, diphenylene iodonium]
effect on PMA-induced ROS (BV2 microglia cell line; co-incubation with PMA): able to counteract the induction of ROS

CCC(C)N(C)C(=O)c1cc2ccccc2c(-c2ccccc2Cl)n1 (stereo not drawn) [PK11195]
change in MST profile of tagged hTSPO (human recombinant TSPO; ligand 250 μM): significant change in the MST profile

COc1cc(C(C)=O)cc(-c2cc(C(C)=O)cc(OC)c2O)c1O [Diapocynin]
concentration inhibiting the PMA-induced increase of ROS (BV2 microglia cell line; PMA 50 ng/ml, nominal concentration for encapsulated drug): ≥ 50 µM
pKa [1]: 7.4

CN1C(=O)CN=C(c2ccc(Cl)cc2)c2cc(Cl)ccc21 [Ro5-4864]
change in MST profile of tagged hTSPO / binding (human recombinant TSPO; tested at 500 μM): significant change in the MST profile

CCCCCCCCCCCCCC(=O)O[C@@H]1[C@@H](C)[C@@]2(O)[C@@H](C=C(CO)C[C@]3(O)C(=O)C(C)=C[C@@H]23)[C@@H]2C(C)(C)[C@]12OC(C)=O [PMA, phorbol ester myristate acetate]
increase of ROS production as compared to untreated control (BV2 microglia cell line; 50 ng/ml for 6 hours): 30-40%
